Measured values from patent publication US11149031B2, “Substituted N-(3-fluoropropyl)-pyrrolidine compounds, processes for their preparation and therapeutic uses thereof” (SANOFI, priority 2016, dated 2021).
Where two headings read alike, the source gives them in different places.

Key:
[1] = molecular target: His6-ERα298-554 WT (ERα ligand-binding domain) (Homo sapiens (Human), UniProt P03372); test: Test A: biochemical antagonist activity, LanthaScreen TR-FRET ERα coactivator assay, WT; conditions: read-out: Antagonism WT IC50
Chain of His6-ERα298-554 WT (ERα ligand-binding domain) (P03372 298-554): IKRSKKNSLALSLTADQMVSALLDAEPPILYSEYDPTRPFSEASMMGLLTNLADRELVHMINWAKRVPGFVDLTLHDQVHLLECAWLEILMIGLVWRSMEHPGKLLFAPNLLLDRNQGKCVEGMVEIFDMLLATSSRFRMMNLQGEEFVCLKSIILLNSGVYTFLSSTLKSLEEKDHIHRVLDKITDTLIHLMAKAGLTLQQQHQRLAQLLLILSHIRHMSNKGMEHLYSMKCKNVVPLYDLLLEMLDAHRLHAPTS
How it was run: (§1)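 His6-ERα LBD (aa 298–554), 0.5 nM, with Tb-anti-His6 antibody, 250 nM PGC1a peptide and 3 nM (or 10 nM) estradiol in pH 7.4 potassium phosphate/DTT buffer; incubated with compound overnight at room temperature. IC50 from 4-parameter logistic fit of TR-FRET 520:495 nm ratio.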

[2] = molecular target: His6-ERα298-554 Y537S mutant (ERα ligand-binding domain) (Homo sapiens (Human), UniProt P03372, Y537S); test: Test A: biochemical antagonist activity, LanthaScreen TR-FRET ERα coactivator assay, Y537S mutant; conditions: read-out: Antagonism Y537S IC50
Chain of His6-ERα298-554 Y537S mutant (ERα ligand-binding domain) (P03372 298-554 Y537S): as the sequence (P03372 298-554) above, with Y240S counted along it
How it was run: as §1

[3] = test system: MCF7 cells (breast tumor cells) WT; test: Test B: cell proliferation/viability assay (CellTiter-Glo) on MCF7 WT; type: cell-based; conditions: 7 days of compound exposure
How it was run: (§2)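 Compound exposure lasted 7 days (3-0.000001 μM final, 9 points) in phenol red-free MEM with 5% charcoal dextran-stripped FBS. The mutant lines grew without estradiol. Luminescent signal, minus medium-only background, was expressed as percent of untreated cells.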

[4] = molecular target: His6-ERα298-554 D538G mutant (ERα ligand-binding domain) (Homo sapiens (Human), UniProt P03372, D538G); test: Test A: biochemical antagonist activity, LanthaScreen TR-FRET ERα coactivator assay, D538G mutant; conditions: read-out: Antagonism D538G IC50
Chain of His6-ERα298-554 D538G mutant (ERα ligand-binding domain) (P03372 298-554 D538G): as the sequence (P03372 298-554) above, with D241G counted along it
How it was run: as §1

[5] = test system: MCF7 cells expressing mutant estrogen receptor Asp 538 Gly; test: Test B: cell proliferation/viability assay (CellTiter-Glo) on MCF7 Asp 538 Gly mutant; type: cell-based; conditions: MCF7 cells expressing ER Asp 538 Gly mutant, 7 days of compound exposure, read-out: proliferation MCF7 D538G IC50
How it was run: as §2

[6] = test system: MCF7 cells expressing mutant estrogen receptor Tyr 537 Ser; test: Test B: cell proliferation/viability assay (CellTiter-Glo) on MCF7 Tyr 537 Ser mutant; type: cell-based; conditions: MCF7 cells expressing ER Tyr 537 Ser mutant, 7 days of compound exposure, read-out: proliferation MCF7 Y537S IC50
How it was run: as §2

ERα in MCF7 cells = ERα in MCF7 cells (Homo sapiens (Human), UniProt P03372); test: Test C: estrogen receptor degradation activity, ERα in cell western assay in MCF7 cells; type: cell-based; conditions: for DC50: 4 hours post compound addition, ERα in cell western, read-out: Degradation IC50; for % Degradation at 3 μM: 4 hours, relative to fulvestrant
Chain of ERα in MCF7 cells (P03372 whole entry): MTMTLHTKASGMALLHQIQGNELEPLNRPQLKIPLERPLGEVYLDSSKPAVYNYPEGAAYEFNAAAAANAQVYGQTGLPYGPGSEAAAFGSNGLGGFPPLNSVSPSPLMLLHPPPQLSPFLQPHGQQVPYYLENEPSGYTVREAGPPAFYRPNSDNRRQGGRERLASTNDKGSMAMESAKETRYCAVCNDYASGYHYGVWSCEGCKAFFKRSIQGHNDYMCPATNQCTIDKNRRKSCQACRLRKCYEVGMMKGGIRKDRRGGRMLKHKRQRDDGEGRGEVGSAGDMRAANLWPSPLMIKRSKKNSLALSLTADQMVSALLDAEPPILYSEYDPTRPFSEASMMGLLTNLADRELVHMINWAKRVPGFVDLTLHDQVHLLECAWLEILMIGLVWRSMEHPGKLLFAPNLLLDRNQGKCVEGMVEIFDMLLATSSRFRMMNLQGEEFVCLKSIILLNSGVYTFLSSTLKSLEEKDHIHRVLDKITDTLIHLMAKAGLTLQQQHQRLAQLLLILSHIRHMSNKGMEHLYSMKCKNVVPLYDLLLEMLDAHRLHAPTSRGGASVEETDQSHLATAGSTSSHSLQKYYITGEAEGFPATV
How it was run: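 Steps: seed MCF7 in phenol red-free medium containing 5% charcoal-dextran stripped FBS; next day add compound, final 3–0.000018 μM; after 4 h fix with 5% formalin plus 0.1% Triton; stain ERα overnight, then secondary at 37 °C for 60 min with Syto-64 at 2 μM; scan green and red intensities.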

[7] = asterisk (*): protocol using 10 nM estradiol

Row | SMILES | IC50 [1, 7] | IC50 [2, 7] | IC50 ([3]; Homo sapiens, MCF7, 168 h) | IC50 [4, 7] | IC50 ([5]; Homo sapiens, MCF7, 168 h) | IC50 ([6]; Homo sapiens, MCF7, 168 h) | DC50 (ERα in MCF7 cells) | % Degradation at 3 μM (ERα in MCF7 cells) | IC50 ([1]; protocol with 3 nM estradiol) | IC50 ([2]; protocol with 3 nM estradiol) | IC50 ([4]; protocol with 3 nM estradiol) | IC50 [3] | IC50 [5] | IC50 [6]
1 | O=C(O)c1ccc2c(c1)CCCC(c1ccc(Cl)cc1Cl)=C2c1ccc(O[C@H]2CCN(CCCF)C2)nc1 [Example 247, 6-(2,4-dichlorophenyl)-5-[6-[(3S)-1-(3-fluoropropyl)pyrrolidin-3-yl]oxy-3-pyridyl]-8,9-dihydro-7H-benzo[7]annulene-2-carboxylic acid] | 5 nM | 72 nM | 0.2 nM | 136 nM | 0.4 nM | 6 nM | 0.2 nM | 93% |  |  |  |  |  | 
2 | Oc1ccc2c(c1)SCC(c1ccc(OC3COC3)cc1)=C2c1ccc(O[C@H]2CCN(CCCF)C2)cc1 [Example 44, 4-[4-[(3S)-1-(3-fluoropropyl)pyrrolidin-3-yl]oxyphenyl]-3-[4-(oxetan-3-yloxy)phenyl]-2H-thiochromen-7-ol] | 172 nM | 1820 nM | > 999 nM | 2930 nM | > 999 nM | > 999 nM | 8 nM | 89% |  |  |  |  |  | 
3 | Oc1ccc2c(c1)SCCC(c1ccc3occc3c1)=C2c1ccc(O[C@H]2CCN(CCCF)C2)cc1 [Example 184, 4-(benzofuran-5-yl)-5-[4-[(3S)-1-(3-fluoropropyl)pyrrolidin-3-yl]oxyphenyl]-2,3-dihydro-1-benzothiepin-8-ol] |  |  | 0.3 nM |  | 0.7 nM | 4 nM | 0.7 nM | 87% | 1 nM | 4 nM | 6 nM |  |  | 
4 | Oc1ccc2c(c1)SCC(c1ccc(OC(F)F)c(F)c1)=C2c1ccc(O[C@H]2CCN(CCCF)C2)cc1 [Example 30, 3-[4-(difluoromethoxy)-3-fluoro-phenyl]-4-[4-[(3S)-1-(3-fluoropropyl)pyrrolidin-3-yl]oxyphenyl]-2H-thiochromen-7-ol] |  |  | 1 nM |  | 2 nM | 16 nM | 1 nM | 91% | 34 nM | 415 nM | 694 nM |  |  | 
5 | CC(C)(C)c1ccc(C2=C(c3ccc(N[C@H]4CCN(CCCF)C4)cc3)c3ccc(O)cc3CCC2)cc1 [Example 89, 6-(4-tert-butylphenyl)-5-[4-[[(3S)-1-(3-fluoropropyl)pyrrolidin-3-yl]amino]phenyl]-8,9-dihydro-7H-benzo[7]annulen-2-ol] | 27 nM | 423 nM | 0.4 nM | 726 nM | 1 nM | 5 nM | 1 nM | 91% |  |  |  |  |  | 
6 | Cc1ccc(C2=C(c3ccc(O[C@H]4CCN(CCCF)C4)cc3)c3ccc(O)cc3[S+]([O-])C2)c(F)c1 (single isomer, unassigned) [Example 70] | 1660 nM | > 4000 nM |  | > 4000 nM | 97 nM | 478 nM | 25 nM | 73% |  |  |  | 64 nM |  | 
7 | Cc1ccc(C2=C(c3cnc(O[C@H]4CCN(CCCF)C4)nc3)c3ccc(O)cc3SC2)c(F)c1 [Example 77, 3-(2-fluoro-4-methyl-phenyl)-4-[2-[(3S)-1-(3-fluoropropyl)pyrrolidin-3-yl]oxypyrimidin-5-yl]-2H-thiochromen-7-ol] | 16 nM | 197 nM | 2 nM | 323 nM | 5 nM | 29 nM | 1 nM | 91% |  |  |  |  |  | 
8 | CC(C)(C)c1ccc(C2=C(c3ccc(O[C@H]4CCN(CCCF)C4)cc3)c3ccc(O)cc3SC2)cc1 [Example 52, 3-(4-tert-butylphenyl)-4-[4-[(3S)-1-(3-fluoropropyl)pyrrolidin-3-yl]oxyphenyl]-2H-thiochromen-7-ol] | 351 nM | 2910 nM | 2 nM | > 4000 nM | 3 nM | 41 nM | 1 nM | 84% |  |  |  |  |  | 
9 | Oc1ccc2c(c1)SCCC(c1cnc3c(c1)CCN3)=C2c1ccc(O[C@H]2CCN(CCCF)C2)cc1 [Example 183, 4-(2,3-dihydro-1H-pyrrolo[2,3-b]pyridin-5-yl)-5-[4-[(3S)-1-(3-fluoropropyl)pyrrolidin-3-yl]oxyphenyl]-2,3-dihydro-1-benzothiepin-8-ol] |  |  | 1 nM |  | 5 nM | 73 nM | 1 nM | 83% | 7 nM | 70 nM | 122 nM |  |  | 
10 | Oc1ccc2c(c1)SCC(c1ccc(C(F)F)cc1F)=C2c1ccc(O[C@H]2CCN(CCCF)C2)cc1 [Example 62, 3-[4-(difluoromethyl)-2-fluoro-phenyl]-4-[4-[(3S)-1-(3-fluoropropyl)pyrrolidin-3-yl]oxyphenyl]-2H-thiochromen-7-ol] | 27 nM | 271 nM | 0.4 nM | 523 nM | 0.2 nM | 6 nM | 0.2 nM | 80% |  |  |  |  |  | 
11 | [O-][S+]1CCC(c2ccc(OC(F)(F)F)cc2)=C(c2ccc(O[C@H]3CCN(CCCF)C3)cc2)c2ccc(O)cc21 (single isomer, unassigned) [Example 227] | 392 nM | 3500 nM |  | 3330 nM |  |  | 4 nM | 90% |  |  |  | 6 nM | 9 nM | 134 nM
12 | CCOc1ccc(C2=C(c3ccc(O[C@H]4CCN(CCCF)C4)cc3)c3ccc(O)cc3SCC2)c(F)n1 [Example 187, 4-(6-ethoxy-2-fluoro-3-pyridyl)-5-[4-[(3S)-1-(3-fluoropropyl)pyrrolidin-3-yl]oxyphenyl]-2,3-dihydro-1-benzothiepin-8-ol] |  |  | 0.2 nM |  | 0.7 nM | 4 nM | 0.5 nM | 92% | 1.5 nM | 22 nM | 43 nM |  |  | 
13 | CCOc1ccc(C2=C(c3ccc(O[C@H]4CCN(CCCF)C4)cc3)c3cc(F)c(O)cc3OCC2)c(C)c1 [Example 155, 4-(4-ethoxy-2-methyl-phenyl)-7-fluoro-5-[4-[(3S)-1-(3-fluoropropyl)pyrrolidin-3-yl]oxyphenyl]-2,3-dihydro-1-benzoxepin-8-ol] | 21 nM | 228 nM | 0.4 nM | 365 nM | 1 nM | 6 nM | 0.2 nM | 81% |  |  |  |  |  | 
14 | Oc1ccc2c(c1)SCC(c1ccc(Cl)nc1F)=C2c1ccc(O[C@H]2CCN(CCCF)C2)cc1 [Example 55, 3-(6-chloro-2-fluoro-3-pyridyl)-4-[4-[(3S)-1-(3-fluoropropyl)pyrrolidin-3-yl]oxyphenyl]-2H-thiochromen-7-ol] | 48 nM | 444 nM | 0.7 nM | 971 nM | 0.3 nM | 5 nM | 0.2 nM | 88% |  |  |  |  |  | 
15 | [2H]C([2H])([2H])Oc1ccc(C2=C(c3ccc(O[C@H]4CCN(CCCF)C4)cc3)c3ccc(O)cc3SC2)c(F)c1 [Example 34, 4-[4-[(3S)-1-(3-fluoropropyl)pyrrolidin-3-yl]oxyphenyl]-3-[2-fluoro-4-(trideuteriomethoxy)phenyl]-2H-thiochromen-7-ol] | 4 nM | 46 nM | 0.5 nM | 83 nM | 0.5 nM | 4 nM | 0.4 nM | 85% |  |  |  |  |  | 
16 | Cc1ccc(C2=C(c3ccc(O[C@H]4CCN(CCCF)C4)cc3)c3ccc(O)cc3[S+]([O-])C2)c(F)c1 (single isomer, unassigned) [Example 71] | 2740 nM | > 4000 nM |  | > 4000 nM |  |  | 11 nM | 75% |  |  |  | 12 nM | 88 nM | 414 nM
